According to patent publication US20220213092A1, “BICYCLIC PYRAZOLE BRUTON'S TYROSINE KINASE INHIBITORS” (AbbVie Inc., priority 2020, published 2022):

Columns and labels:
BTK = target: T1, BTK (Homo sapiens, UniProt Q06187); experiment: BTK kinase electrophoretic mobility shift assay (MSA); format: biochemical; conditions: 50 μM ATP, 0.5 nM BTK enzyme (Nanosyn-293HEK, WT), 3 hours at 25° C.; all examples except 50, 51, 62 and 63; read-out: BTK IC50
T1 construct: purchased Nanosyn, Santa Clara, Calif; host or cells: 293HEK

CYP3A4 = CYP3A4 induction assay (CYP 3A4 mRNA by qPCR in cryopreserved human hepatocytes); format: in vitro ADME; conditions: CYP3A4 mRNA fold change vs vehicle, 10 μM compound
Procedure: CYP induction was evaluated in vitro by determining the expression levels of CYP 3A4 mRNA using the qPCR (quantitative polymerase chain reaction) assay. On day one, cryopreserved human hepatocytes were thawed in prewarmed (37° C.) thawing medium (cryopreserved hepatocyte recovery medium, Gibco™ CM 7000; Thermo Fisher Scientific), centrifuged (1000 g for 10 minutes) and resuspended in plating medium (Gibco™ CM3000—Williams Medium E supplemented with hepatocytes plating supplement pak-serum containing; Thermo Fisher Scientific). Cells were counted by trypan blue exclusion using a hemocytometer and adjusted to a cell density of […]. Thereafter, […] of cell suspension was aliquoted per well in a 96-well plate, resulting in 60,000 cells/well. Plates were shaken in the north-south and east-west direction during plating. Plated cells were incubated at 37° C./5% CO2 in a humidified cell culture incubator for 4-6 hours. During this time, incubation medium (Gibco™ CM4000, cell maintenance supplement pack; Thermo Fisher Scientific) was mixed with Gibco™ Geltrex™ (Thermo Fischer Scientific) at the appropriate Geltrex™ protein concentration. Following recovery, medium was removed from cells and replaced with freshly prepared incubation medium. Cells were incubated overnight in a cell culture incubator (37° C./5% CO2).
The next day the incubation medium was prepared by combining the hepatocyte maintenance supplement pack with Williams medium E. The medium was warmed to 37° C. 1000× dimethyl sulfoxide compound stocks were prepared to the desired concentrations. 10 mM compound stocks in dimethyl sulfoxide were diluted (1 μL to 1 mL CM4000; final concentration=10 μM). Overlay medium was aspirated and […] dose solution added to the desired labeled 96 well plate. Cells were returned to the humidified incubator overnight (37° C./5% CO2).
On day 3, incubation medium was warmed to 37° C., and the same process for compound preparation repeated as in day 2, i.e. 1000× dimethyl sulfoxide compound stocks were prepared to the desired concentration, diluted (1:1000) in warm incubation medium, and this freshly prepared medium was used to replace treatment medium. Cells were returned to the humidified incubator (37° C./5% CO2) overnight.
On day 4, RNA isolation was performed. Prior to RNA isolation, cell viability was assessed using presto blue reagent. 10× dilution of PrestoBlue™ reagent (Thermo Fisher Scientific) was prepared by mixing 1.4 mL PrestoBlue™ with 12.6 mL incubation medium. Medium was aspirated from cells, and 100 μL of cell viability medium (10× dilution of PrestoBlue™ reagent) added and incubated for 17 minutes. Cell viability was determined by measuring absorbance using a microplate reader (Spark® 10M Tecan Life Sciences). After this measurement, media was aspirated using a multichannel aspirator and a glass pipet to completely aspirate from each well. Plates were stored or immediately used for mRNA isolation. All surfaces were cleaned using RNase away. 2× Lysis buffer was well mixed after incubation at ambient temperature. Fresh lysis buffer was prepared by mixing 0.125 μL of 0.5 mM DTT with 4.875 μL 2× lysis buffer. 1× lysis buffer containing DTT was then prepared by adding 5 μL dilution buffer to the 2× lysis buffer and mixing thoroughly. Thereafter, cell lysates were prepared by adding 1× lysis buffer to each sample well (96-well plate). Samples were incubated for 3-6 minutes at ambient temperature while shaking (350-400 rpm) to lyse the cells. Cells were scrapped with tips, and cell lysate (80 μL) was transferred to each well of the mRNA Catcher PLUS™ plate (Thermo Fisher Scientific). mRNA Catcher PLUS™ plate containing samples was covered with adhesive plastic film plate cover and incubated at ambient temperature for 45-60 minutes for RNA hybridization.
After hybridization, lysate was aspirated from the cells. […]

[1] = target: T2, Phosphorylation of Y223 of BTK (Homo sapiens, UniProt Q06187); experiment: Whole blood compound screening, phosphorylation of Y223 site of BTK (MSD assay); format: cell-based; conditions: healthy human whole blood, 2 hours at 37° C., 3 separate donors; read-out: WB BTK-pY223 EC50
T2 construct: host or cells: healthy human whole blood, 3 donors
How it was run: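 Heparinized human whole blood from 3 donors treated 2 h at 37 °C with compounds (8 points, top 10 μM, 1:4 dilution, 0.2% DMSO), then lysed. BTK pY223 quantified by MSD sandwich immunoassay (anti-BTK capture, anti-pY223 detection); EC50 from concentration response.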

T1 sequence (Q06187 whole entry): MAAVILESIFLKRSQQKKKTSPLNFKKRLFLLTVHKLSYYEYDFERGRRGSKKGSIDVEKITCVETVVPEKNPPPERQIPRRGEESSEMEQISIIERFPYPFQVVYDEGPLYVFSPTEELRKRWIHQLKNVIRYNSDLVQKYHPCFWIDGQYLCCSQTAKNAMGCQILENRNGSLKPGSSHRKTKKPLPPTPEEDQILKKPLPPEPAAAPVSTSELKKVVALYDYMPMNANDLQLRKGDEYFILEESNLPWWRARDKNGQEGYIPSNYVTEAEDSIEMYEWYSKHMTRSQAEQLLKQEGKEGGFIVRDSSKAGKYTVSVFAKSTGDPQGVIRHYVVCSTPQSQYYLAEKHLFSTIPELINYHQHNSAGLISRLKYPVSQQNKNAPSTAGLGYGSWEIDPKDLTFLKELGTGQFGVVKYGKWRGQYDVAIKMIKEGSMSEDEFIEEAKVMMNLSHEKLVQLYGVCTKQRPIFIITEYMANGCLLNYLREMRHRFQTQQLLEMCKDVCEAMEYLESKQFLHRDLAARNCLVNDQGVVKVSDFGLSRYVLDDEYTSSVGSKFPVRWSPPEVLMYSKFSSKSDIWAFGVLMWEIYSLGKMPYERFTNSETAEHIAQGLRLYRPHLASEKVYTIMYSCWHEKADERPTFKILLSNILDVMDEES
T2 sequence (Q06187 whole entry): as above

| IC50 (BTK) [µM] | CYP3A4 Ind. fold (CYP3A4) [fold] | EC50 [1] [µM] | Structure (SMILES) |
| --- | --- | --- | --- |
| 0.00217 | 0.85 | 0.117 | C=CC(=O)N1CCN([C@H]2CCNc3c2nn(-c2ccc(Oc4cc(F)cc(F)c4)cc2)c3C(N)=O)CC1 [Example 59, (7S)-2-[4-(3,5-difluorophenoxy)phenyl]-7-[4-(prop-2-enoyl)piperazin-1-yl]-4,5,6,7-tetrahydro-2H-pyrazolo[4,3-b]pyridine-3-carboxamide] |
| 0.0775 | 1.58 | – | C=CC(=O)N1CCN([C@@H]2CCNc3c2nn(-c2ccc(Oc4cc(F)cc(F)c4)cc2)c3C(N)=O)CC1 [Example 58, (7R)-2-[4-(3,5-difluorophenoxy)phenyl]-7-[4-(prop-2-enoyl)piperazin-1-yl]-4,5,6,7-tetrahydro-2H-pyrazolo[4,3-b]pyridine-3-carboxamide] |

| Structure (SMILES) | IC50 (BTK) [µM] | CYP3A4 Ind. fold (CYP3A4) [fold] | EC50 [1] [µM] |
| --- | --- | --- | --- |
| C=CC(=O)N1C2CC1CN(C1CCNc3c1nn(-c1ccc(Oc4ccccc4)cc1)c3C(N)=O)C2 (stereo not shown) [Example 45, 2-(4-phenoxyphenyl)-7-[6-(prop-2-enoyl)-3,6-diazabicyclo[3.1.1]heptan-3-yl]-4,5,6,7-tetrahydro-2H-pyrazolo[4,3-b]pyridine-3-carboxamide] | 0.00233 | 25.40 | – |
